Assay results: US20060142247A1, “Tricyclic heterocycles” (priority 2004, published 2006)

System: HCT 116 cells
Assay: Viability assay HCT 116 cells (CellTiter-Glo)
Assay type: cell-based
Conditions: Homo sapiens, HCT-116, 120 h, HCT 116 human colon carcinoma cells, 5 days incubation, CellTiter-Glo luminescence
Outline: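 Human colon carcinoma cells seeded at 1000/well in RPMI 1640 with GlutaMAX, FCS and Pen/Strep, incubated 24 h at 37 °C, then treated with 10 concentrations (30 μM to 0.0015 μM, 1:3). After 5 days, viability read by CellTiter-Glo ATP luminescence.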

Row | SMILES | IC50 [nM]
1 | CC(C)N1C(=O)C(C)(C)c2cc3nc(-c4n[nH]c5ccccc45)[nH]c3cc21 [Example 6, 2-(1H-indazol-3-yl)-5-isopropyl-7,7-dimethyl-5,7-dihydro-3H-imidazo[4,5-f]indol-6-one] | 100 to 1000
2 | CC1(C)C(=O)N(CC(=O)N2CCOCC2)c2cc3[nH]c(-c4n[nH]c5ccccc45)nc3cc21 [Example 40, 2-(1H-Indazol-3-yl)-7,7-dimethyl-5-(2-morpholin-4-yl-2-oxo-ethyl)-5,7-dihydro-3H-imidazo[4,5-f]indol-6-one] | 100 to 1000
3 | CC1(C)C(=O)N(CCCN2CCCCC2)c2cc3[nH]c(-c4n[nH]c5ccccc45)nc3cc21 [Example 19, 2-(1H-Indazol-3-yl)-7,7-dimethyl-5-(3-piperidin-1-yl-propyl)-5,7-dihydro-3H-imidazo[4,5-f]indol-6-one] | 100 to 1000
4 | CCCN1C(=O)C(C)(C)c2cc3nc(-c4n[nH]c5ccccc45)[nH]c3cc21 [Example 5, 2-(1H-indazol-3-yl)-7,7-dimethyl-5-propyl-5,7-dihydro-3H-imidazo[4,5-f]indol-6-one] | 100 to 1000
5 | CN(C)CCCN1C(=O)C(C)(C)c2cc3nc(-c4n[nH]c5ccccc45)[nH]c3cc21 [Example 21, 5-(3-Dimethylamino-propyl)-2-(1H-indazol-3-yl)-7,7-dimethyl-5,7-dihydro-3H-imidazo[4,5-f]indol-6-one] | 100 to 1000
6 | CC1(C)C(=O)N(CCCN2CCOCC2)c2cc3[nH]c(-c4n[nH]c5ccccc45)nc3cc21 [Example 7, 2-(1H-indazol-3-yl)-7,7-dimethyl-5-(3-morpholin-4-yl-propyl)-5,7-dihydro-3H-imidazo[4,5-f]indol-6-one] | 280
7 | CC1(C)C(=O)N(CC(O)CO)c2cc3[nH]c(-c4n[nH]c5ccccc45)nc3cc21 (stereo not drawn) [Example 35, 5-(2,3-Dihydroxy-propyl)-2-(1H-indazol-3-yl)-7,7-dimethyl-5,7-dihydro-3H-imidazo [4,5-f]indol-6-one] | 100 to 1000
8 | CC1(C)C(=O)N(Cc2ccc(S(C)(=O)=O)cc2)c2cc3[nH]c(-c4n[nH]c5ccccc45)nc3cc21 [Example 27, 2-(1H-Indazol-3-yl)-5-(4-methanesulfonyl-benzyl)-7,7-dimethyl-5,7-dihydro-3H-imidazol[4,5-f]indol-6-one] | 100 to 1000
9 | CCC1C(=O)Nc2cc3nc(-c4[nH]nc5ccccc45)[nH]c3cc21 (stereo not drawn) [Example 13, 7-Ethyl-2-(1H-indazol-3-yl)-5,7-dihydro-3H-imidazo[4,5-f]indol-6-one] | 100 to 1000
10 | CC1(C)C(=O)Nc2cc3[nH]c(-c4n[nH]c5ccccc45)nc3cc21 [Example 8, 2-(1H-indazol-3-yl)-7,7-dimethyl-5,7-dihydro-3H-imidazo[4,5-f]indol-6-one] | 100 to 1000
11 | CCOC(=O)CN1C(=O)C(C)(C)c2cc3nc(-c4n[nH]c5ccccc45)[nH]c3cc21 [Example 23, [2-(1H-Indazol-3-yl)-7,7-dimethyl-6-oxo-6,7-dihydro-3H-imidazo[4,5-f]indol-5-yl]-acetic acid ethyl ester] | 100 to 1000
12 | CC1(C)C(=O)N(Cc2ccccc2)c2cc3[nH]c(-c4n[nH]c5ccccc45)nc3cc21 [Example 26, 5-Benzyl-2-(1H-indazol-3-yl)-7,7-dimethyl-5,7-dihydro-3H-imidazo[4,5-f]indol-6-one] | 100 to 1000
13 | COCCOCCN1C(=O)C(C)(C)c2cc3nc(-c4n[nH]c5ccccc45)[nH]c3cc21 [Example 17, 2-(1H-Indazol-3-yl)-5-[2-(2-methoxy-ethoxy)-ethyl]-7,7-dimethyl-5,7-dihydro-3H-imidazo[4,5-f]indol-6-one] | 100 to 1000
14 | CC1(C)C(=O)N(CC(=O)NCc2ccccc2)c2cc3[nH]c(-c4n[nH]c5ccccc45)nc3cc21 [Example 39, N-Benzyl-2-[2-(1H-indazol-3-yl)-7,7-dimethyl-6-oxo-6,7-dihydro-3H-imidazo[4,5-f]indol-5-yl]-acetamide] | 100 to 1000
15 | O=C1Nc2cc3nc(-c4n[nH]c5ccccc45)[nH]c3cc2C12CCCC2 [Example 9, 2-(1H-indazol-3-yl)-spiro[7,7-cyclopentan-5,7-dihydro-3H-imidazo[4,5-f]indol]-6-one] | 100 to 1000
16 | CC1(C)C(=O)N(CC(=O)NO)c2cc3[nH]c(-c4n[nH]c5ccccc45)nc3cc21 [Example 49, N-Hydroxy-2-[2-(1H-indazol-3-yl)-7,7-dimethyl-6-oxo-6,7-dihydro-3H-imidazo[4,5-f]indol-5-yl]-acetamide] | 1000 to 10000
17 | CC1(C)C(=O)N(CC#N)c2cc3[nH]c(-c4n[nH]c5ccccc45)nc3cc21 [Example 24, [2-(1H-Indazol-3-yl)-7,7-dimethyl-6-oxo-6,7-dihydro-3H-imidazo[4,5-f]indol-5-yl]-acetonitrile] | 100 to 1000
18 | CC1C(=O)Nc2cc3[nH]c(-c4n[nH]c5ccccc45)nc3cc21 (stereo not drawn) [Example 11, 2-(1H-Indazol-3-yl)-7-methyl-5,7-dihydro-3H-imidazo[4,5-f]indol-6-one] | 100 to 1000
19 | CCN1C(=O)C(C)(C)c2cc3nc(-c4n[nH]c5ccccc45)[nH]c3cc21 [Example 3, 5-Ethyl-2-(1H-indazol-3-yl)-7,7-dimethyl-5,7-dihydro-3H-imidazo[4,5-f]indol-6-one] | 100 to 1000

Now from value to molecule:

Row | IC50 [nM] | SMILES
20 | 100 to 1000 | CC1(C)C(=O)N(CCO[Si](C)(C)C(C)(C)C)c2cc3[nH]c(-c4n[nH]c5ccccc45)nc3cc21 [Example 28, 5-[2-(tert-Butyl-dimethyl-silanyloxy)-ethyl]-2-(1H-indazol-3-yl)-7,7-dimethyl-5,7-dihydro-3H-imidazo[4,5-f]indol-6-one]
21 | 100 to 1000 | C=CCCN1C(=O)C(C)(C)c2cc3nc(-c4n[nH]c5ccccc45)[nH]c3cc21 [Example 15, 5-But-3-enyl-2-(1H-indazol-3-yl)-7,7-dimethyl-5,7-dihydro-3H-imidazo[4,5-f]indol-6-one]
22 | 180 | C=CCN1C(=O)C(C)(C)c2cc3nc(-c4n[nH]c5ccccc45)[nH]c3cc21 [Example 2, 5-Allyl-2-(1H-indazol-3-yl)-7,7-dimethyl-5,7-dihydro-3H-imidazo[4,5-f]indol-6-one]
23 | 1000 to 10000 | CC1(C)C(=O)N(CC(=O)O)c2cc3[nH]c(-c4n[nH]c5ccccc45)nc3cc21 [Example 36, [2-(1H-Indazol-3-yl)-7,7-dimethyl-6-oxo-6,7-dihydro-3H-imidazo[4,5-f]indol-5-yl]-acetic acid]
24 | 100 to 1000 | CC1(C)C(=O)N(CCO)c2cc3[nH]c(-c4n[nH]c5ccccc45)nc3cc21 [Example 34, 5-(2-Hydroxy-ethyl)-2-(1H-indazol-3-yl)-7,7-dimethyl-5,7-dihydro-3H-imidazo[4,5-f]indol-6-one]
25 | 100 to 1000 | CC1(C)C(=O)N(CC(=O)Nc2ccccc2)c2cc3[nH]c(-c4n[nH]c5ccccc45)nc3cc21 [Example 43, 2-[2-(1H-Indazol-3-yl)-7,7-dimethyl-6-oxo-6,7-dihydro-3H-imidazo[4,5-f]indol-5-yl]-N-phenyl-acetamide]
26 | 100 to 1000 | CC1(C)C(=O)N(CCN)c2cc3[nH]c(-c4n[nH]c5ccccc45)nc3cc21 [Example 52, 5-(2-Amino-ethyl)-2-(1H-indazol-3-yl)-7,7-dimethyl-5,7-dihydro-3H-imidazo[4,5-f]indol-6-one]
27 | 100 to 1000 | CC1(C)C(=O)N(CC(N)=O)c2cc3[nH]c(-c4n[nH]c5ccccc45)nc3cc21 [Example 37, 2-[2-(1H-Indazol-3-yl)-7,7-dimethyl-6-oxo-6,7-dihydro-3H-imidazo[4,5-f]indol-5-yl]-acetamide]
